This note sets out measurements from patent publication US20250345454A1, “CHEMOTHERAPEUTIC PACLITAXEL BASED MICELLULAR NANOPARTICLES” (Peptinovo Biopharma Inc., priority 2024, published 2025).

One series concerns SK-OV-3 cells. As to the kind of experiment: SK-OV-3 growth inhibition, 72 hr, MTT assay. The settings on record: for SK-OV-3 growth inhibition, comparison of anchor lipids: conjugates tested as C-m-HDLs prepared by solvent lyophilization, FIGS. 12A and 12B; for SK-OV-3 growth inhibition, comparison of peptides: tested as C-m-HDLs loaded with conjugate 20 made with the named peptide, FIG. 13. The series is classed as cell-based, human. As for the experimental part: In this Example, the mole portions of components in the C-m-HDLs prepared by solvent lyophilization were POPC: egg SM: peptide: conjugate 5.6:2.4:2:1. 20 mM stock solutions of POPC and of egg SM were prepared in tert-butyl alcohol: water (8:2 v/v). Peptide SEQ ID NO: 25 (acetate counter ion) was dissolved in tert-butyl alcohol/water/acetic acid (80:20:7 v/v) to obtain a 10 mM peptide solution. Conjugates 20 and 30 were separately dissolved in tert-butyl alcohol: water (95:5) to a final concentration of 10 mM.
For C-m-HDL preparation, 2.8 mL of 20 mM POPC, 1.2 mL of 20 mM egg SM, 2 mL of 10 mM peptide, 1 mL of 10 mM conjugate, and 0.3 mL acetic acid were combined in a 20 mL glass vial. The combined solution was frozen at ≥−70° C. for ≥1 hr. The frozen vial was placed in the chamber of a lyophilizer set at a shelf temperature of −20° C. A vacuum between 100 to 150 mTorr was applied for >20 hr. The shelf temperature was raised to −10° C. and the vacuum was continued for >15 hr. The shelf temperature was then raised to 20° C. and the vacuum continued for 24 hr. The dried cake was dissolved in PBS to obtain C-m-HDLs. The uniformity of the C-m-HDLs was evaluated by SEC (Acclaim™ SEC-1000, 300 mm×4.6 mm column, 0.3 mL/min PBS mobile phase, 210 nm and 280 nm UV detection) and by dynamic light scattering. The phospholipid content was established with a commercially available, enzyme-based, colorimetric assay kit. Peptide and conjugate content were established by HPLC.
Two C-m-HDLs were prepared as above, containing either Conjugate 20 or Conjugate 30 were then tested for their growth inhibition activity against SK-OV-3 cells (ATCC). SK-OV-3 cells were grown in McCoy's-5A media supplemented with 10% fetal bovine serum and maintained in a 37° C. incubator under a 5% CO2 atmosphere. To assess growth inhibition, the growth medium of cells grown in 96-well plates was supplemented with various concentrations of C-m-HDL (cmpd 20), C-m-HDL (compd 30) or paclitaxel from a DMSO stock solution. The 96-well plates were incubated for 72 hr. The relative amount of live cells in each of the wells after 72 hr was determined with the MTT assay. The concentrations of test articles causing 50% growth inhibition (GIso) were obtained by performing a non-linear fit of the MTT results to a 4-parmeter logistic function. The results are plotted in FIG. 11.
(Tetrazolium assays rely on reduction of a dye to a coloured formazan, in cell work by metabolically active cells.)

The test system of the next series is Sprague-Dawley rats. As to the kind of experiment: Adrenal gland functionality in rats after dosing (ACTH challenge, plasma corticosterone). The series is classed as in vivo. The conditions noted are these: 4 mg/kg on Days 1, 4 and 7; ACTH challenge Day 11; paclitaxel intraperitoneal, C-m-HDL intravenous; FIG. 10. As for the experimental part: A paclitaxel stock solution was prepared by dissolving paclitaxel in 1:1 (v/v) Cremophor EL/ethanol (95%) to a final paclitaxel concentration of […] (C-E paclitaxel solution). Next, a paclitaxel solution suitable for dosing was prepared by combining one volume of the C-E paclitaxel solution with 3 volumes of 0.9 weight % NaCl. This solution is designated as “Control”.
C-m-HDL (cmpd 20) was prepared as per Example 12.
The in vivo study was conducted in rats in accordance with the current guidelines for animal welfare (Guide for the Care and Use of Laboratory Animals, 8th Ed., 2011). The procedures used in the study were reviewed and approved by the Institutional Animal Care and Use Committee.
Eighteen (18) female Sprague-Dawley rats were randomly assigned to 3 groups of 6 animals each. All animals were lightly anesthetized using isoflurane and dosed intraperitoneally on Days 1, 4, and 7 with paclitaxel at 4 mg/kg in a dose volume of 1.5 mL/kg, or intravenously with C-m-HDL (cmpd 20) at 4 mg/kg or vehicle (saline) via the tail vein using a dose volume of 1.5 mL/kg. Group 1 received saline, Group 2 received paclitaxel, and Group 3 received C-m-HDL (cmpd 20). On Day 11, rats in each group were lightly anesthetized using isoflurane within their home cage to minimize potential stress responses. […] Plasma corticosterone content was determined with a commercially available ELISA kit.

Where no end group is shown, it is not given here. [ ]: non-standard residue; d: D form. Aib = CC(C)(N)C(=O)O

As for `CC(=O)O[C@H]1C(=O)[C@@]2(C)[C@H]([C@H](OC(=O)c3ccccc3)[C@]3(O)C[C@H](OC(=O)[C@H](OC(=O)Oc4cc(C)c5c(c4)CC[C@@](C)(CC/C=C(\C)CC/C=C(\C)CCC=C(C)C)O5)[C@@H](NC(=O)c4ccccc4)c4ccccc4)C(C)=C1C3(C)C)[C@]1(OC(C)=O)CO[C@@H]1C[C@@H]2O` [Conjugate 20, paclitaxel-delta-tocotrienol conjugate], the “SK-OV-3 growth inhibition, comparison of anchor lipids” value is on record as “equivalent results” with SK-OV-3 cells and “essentially equivalent” in the series on SK-OV-3 cells (listed as paclitaxel-delta-tocotrienol). In the case of `CC(=O)O[C@H]1C(=O)[C@@]2(C)[C@H]([C@H](OC(=O)c3ccccc3)[C@]3(O)C[C@H](OC(=O)[C@H](O)[C@@H](NC(=O)c4ccccc4)c4ccccc4)C(C)=C1C3(C)C)[C@]1(OC(C)=O)CO[C@@H]1C[C@@H]2O` [paclitaxel], the “adrenal function / adrenal toxicity” value in the series on Sprague-Dawley rats is “lack of adrenal toxicity”. As to “DVFQKLXELFNQLLEKWKQV (DVFQKL[Aib]ELFNQLLEKWKQV) [SEQ ID NO: 25, amphiphilic, alpha-helical peptide used to prepare C-m-HDLs]”, the “SK-OV-3 growth inhibition, comparison of peptides” value in the series on SK-OV-3 cells is recorded as “substantially the same”. The same measure, in the same setting: then “DVFQKLXELFNQLXEKWKQV (DVFQKL[Aib]ELFNQL[Aib]EKWKQV) [SEQ ID NO: 35, amphiphilic, alpha-helical peptide used to prepare C-m-HDLs]”, with “substantially the same”.
